Assay results reported in US20250368611A1, “METHOD FOR PREPARING BERAPROST 314-D SODIUM” (YS Life Science Co., Ltd., priority 2024, published 2025).
“Also recorded” adds a separate entry of the source.

Columns and labels:
[1] = tested on: IL-6; test: CD19 CAR T-cell / Raji co-culture: IL-6 in supernatant by multiplex Luminex; type: cell-based, human
Description: (§1) The impact of CTO1681 on the efficacy of CD19-targeting CAR T-cells in vitro as well as its ability to reduce CRS-inducing pro-inflammatory cytokine levels in the presence of CAR T-cells and tumor cells in vitro were explored. […] CD3 T cells were sorted from one healthy donor PBMCs, stimulated for a short period of time and transduced with CD19 CAR-T lentivirus (LV) containing CD28 and CD3ζ domains. CD19 CAR T-cells were expanded for 6 days and used in the assay. CD19-targeting CD3 T-cells were treated with 5 increasing concentrations of CTO1681 (0.36 nM, 1.8 nM, 9 nM, 45 nM, and 225 nM) or vehicle for 30 minutes, prior to, and during co-culture with CD19+ Raji lymphoma target cells. Media alone, vehicle, and positive control (dexamethasone) wells were included. Following initial treatment, CAR T-cells (Effectors) were co-cultured with fluorescently labeled CD19+ Raji tumor cells (Target cells) at 3 different Effector:Target cell ratios (10:1, 5:1 and 1:1) and treated with 5 different concentrations of CTO1681 or vehicle for 24 hours. Target cells (Raji cells) were fluorescently labelled with CPD (eBioscience™ Cell Proliferation Dye eFluor™) prior to co-culture to distinguish the Raji cells from the effector cells and allow for analysis of target viability by flow cytometry. Following incubation, supernatant was collected and levels of pro-inflammatory cytokines IL-6 and TNF-α were measured by multiplex Luminex assay and […] was measured via time-resolved fluorescence resonance energy transfer (TR-FRET) assay. These cytokines were selected for quantification as they are early cytokines released following CAR T-cell infusion in vivo that causes hyperactivation of the immune system resulting in acute systemic inflammation, CRS, multiorgan failure, and possible death. In addition, flow cytometry was used to measure the level of Raji tumor/target cell death following CAR T treatment across CTO1681 conditions to measure impact of CTO1681 with CAR T-cell efficacy. Co-cultures were stained with viability dye 7-AAD for measuring viability.

[2] = tested on: TNF-α; test: CD19 CAR T-cell / Raji co-culture: TNF-α in supernatant by multiplex Luminex; type: cell-based, human
Description: as §1

[3] = tested on: IFN-γ; test: CD19 CAR T-cell / Raji co-culture: IFN-γ in supernatant by TR-FRET; type: cell-based, human
Description: as §1

[4] = tested on: CD19+ Raji lymphoma target cells; test: CD19 CAR T-cell killing of Raji target cells, flow cytometry (7-AAD); type: cell-based, human; settings: all concentrations 0.36-225 nM; 24 hours co-culture
Description: The impact of CTO1681 on the efficacy of CD19-targeting CAR T-cells in vitro as well as its ability to reduce CRS-inducing pro-inflammatory cytokine levels in the presence of CAR T-cells and tumor cells in vitro were explored. […] CD3 T cells were sorted from one healthy donor PBMCs, stimulated for a short period of time and transduced with CD19 CAR-T lentivirus (LV) containing CD28 and CD3ζ domains. CD19 CAR T-cells were expanded for 6 days and used in the assay. CD19-targeting CD3 T-cells were treated with 5 increasing concentrations of CTO1681 (0.36 nM, 1.8 nM, 9 nM, 45 nM, and 225 nM) or vehicle for 30 minutes, prior to, and during co-culture with CD19+ Raji lymphoma target cells. Media alone, vehicle, and positive control (dexamethasone) wells were included. […] Following incubation, supernatant was collected and levels of pro-inflammatory cytokines IL-6 and TNF-α were measured by multiplex Luminex assay and […] was measured via time-resolved fluorescence resonance energy transfer (TR-FRET) assay. These cytokines were selected for quantification as they are early cytokines released following CAR T-cell infusion in vivo that causes hyperactivation of the immune system resulting in acute systemic inflammation, CRS, multiorgan failure, and possible death. […]

[5] = tested on: Raji-luc tumor cells; test: CAR T-cell efficacy in NSG mice bearing Raji-luc tumors (IVIS imaging); type: in vivo; settings: 0.3, 0.2 or 0.15 mg/kg/d BID for 14 days; Day 15
Experimental: The effects if any, of CTO1681 on CAR T-cell activity in vivo were measured. Human T-cells expressing CD19-CD28-CD3Z CAR construct was used in this experiment. 6-7 week old NSG™ (NOD SCID gamma) mice were engrafted with 1×10^6 luciferase (luc) expressing Raji tumor cells (herein referred to as “Raji-luc” tumor cells) each on Day 1 to allow for tumor growth over a 7-day period prior to the commencement of the treatment. CAR T-cell infusion was performed intravenously via lateral tail vein on (5×10^6 CD19 CAR T-cells generated from healthy donors). NSG mice are severely immunodeficient, which facilitates ready tumor engraftment and subsequent clearance due to CAR T-cells can be measured. Tumor growth after engraftment and subsequent clearance were monitored once weekly (starting on Day 7) using IVIS imaging to detect luciferase signal in living mice. CTO1681 administration began on Day 8, two days before CAR T-cell infusion, with injections twice a day for 14 days. Mice received total daily CTO1681 doses of 0.3 mg/kg/d, 0.2 mg/kg/d, or 0.15 mg/kg/d via two injections (BID). CTO1681 doses were selected based on the pharmacokinetic profile of the drug in mice. […] Mice were monitored for body temperature and health evaluations (weight, movement, posture, fur condition, etc.) throughout the entire study.

[6] = Health evaluations in NSG tumor-bearing mice; type: in vivo; settings: 0.3, 0.2 or 0.15 mg/kg/d BID for 14 days with CAR T-cells
Experimental: Tumor growth after engraftment and subsequent clearance were monitored once weekly (starting on Day 7) using IVIS imaging to detect luciferase signal in living mice. CTO1681 administration began on Day 8, two days before CAR T-cell infusion, with injections twice a day for 14 days. Mice received total daily CTO1681 doses of 0.3 mg/kg/d, 0.2 mg/kg/d, or 0.15 mg/kg/d via two injections (BID). CTO1681 doses were selected based on the pharmacokinetic profile of the drug in mice. Control groups included mice receiving Raji-luc tumor cells without CAR T-cell treatment, mice receiving Raji-luc tumor cells and a CAR T-cell infusion, and mice receiving Raji-luc tumor cells with vehicle treatments. Mice were monitored for body temperature and health evaluations (weight, movement, posture, fur condition, etc.) throughout the entire study.

[7] = 10:1 ratio of Effectors to Target cells, 0.36-225 nM, 24 hours
[8] = CAR T-cells:Raji cells 10:1, 0.36-225 nM
[9] = across three ratios of CAR-T cells to Raji cells (10:1, 5:1, 1:1)

CC#CC[C@H](C)[C@H](O)/C=C/[C@@H]1[C@H]2c3cccc(CCCC(=O)[O-])c3O[C@H]2C[C@H]1O.[Na+] [CTO1681, sodium 4-((1R,2R,3aS,8bS)-2-hydroxy-1-((3S,4S,E)-3-hydroxy-4-methyloct-1-en-6-yn-1-yl)-2,3,3a,8b-tetrahydro-1H-cyclopenta[b]benzofuran-5-yl)butanoate]
Maximum reduction IL-6 [1, 7]: ~23% | Effect on IL-6 levels [1, 8]: dose-dependently reduced; also recorded: dose-dependently lowers | IL-6 with increasing concentrations [1, 9]: reduction | Maximum reduction TNF-α [2, 7]: approximately 50% | Effect on TNF-α levels [2, 8]: dose-dependently reduced; also recorded: dose-dependently lowers | TNF-α with increasing concentrations [2, 9]: reduction | IFN-γ [3, 7]: ~26% | Effect on IFN-γ levels [3, 8]: dose-dependently reduced; also recorded: dose-dependently lowers | IFN-γ [3, 9]: reduction | Effect on tumor/target cell killing by CD19-directed CAR T-cells [4]: did not impact or interfere; also recorded: absence of an effect | Effect on CD19 CAR T-cell activity (reduction of tumor burden, luciferase signal) [5]: did not affect; also recorded: does not interfere | Clinical morbidities, including weight loss or limb movement [6]: did not cause any increase
